Laboratory results as given in US11964973B2 (priority 2019, dated 2024).

tested on: human venous whole blood, CD8 positive population (pERK); assay: DGK human whole blood pERK assay; type: cell-based; conditions: Homo sapiens, CD8 positive, human whole blood pERK; read-out: DGK HWB
Experimental: Assay 11: DGK Human Whole Blood pERK Assay
Human whole blood ERK phosphorylation assay was performed with human venous whole blood obtained from healthy donors (drawn with Heparin as anti-coagulant). […] Heparinized human whole blood was added to the compound plate at 9 μL per well and incubated for one hour at 37° C. in a humidified 95%, air/5% CO2 incubator. After one hour of compound incubation, 1 μL of human anti-CD3 antibody (in-house) in the presence of cross-linking antibody goat anti-mouse IgG (4 μg/mL) was added to the well at 1 μg/mL final concentration for stimulation of pathway and additionally incubated for 15 minutes at 37° C. […] Samples analyzed using the Intellicyt® iQue Screener PLUS. The pERK activation was quantitated by the percentage of pERK positive population within CD8 positive population.

Compound | EC50
Cc1ccc(O[C@@H]2C[C@H](C)N(c3cc(=O)n(C)c4ccc(C#N)nc34)C[C@@H]2C)cc1 [Example 312, 8-((2S,4R,5S)-2,5-dimethyl-4-(p-tolyloxy)piperidin-1-yl)-5-methyl-6-oxo-5,6-dihydro-1,5-naphthyridine-2-carbonitrile] | 6 µM
CC[C@@H]1CN(c2cc(=O)n(C)c3ccc(C#N)nc23)[C@H](C)C[C@@H]1Oc1cccc(C(F)(F)F)c1 [Example 309, 8-((2R,4S,5R)-5-ethyl-2-methyl-4-(3-(trifluoromethyl)phenoxy)piperidin-1-yl)-5-methyl-6-oxo-5,6-dihydro-1,5-naphthyridine-2-carbonitrile] | 4 µM

same assay, conditions: Homo sapiens, CD8 positive, read-out: DGK HWB, human whole blood pERK

EC50 | Compound
11 µM | CC[C@@H]1CN(c2nc(=O)n(C)c3ccc(C#N)nc23)[C@@H](C)C[C@H]1Oc1ccc(OC(C)C)cn1 [Example 301, 4-((2S,4R,5R)-5-ethyl-4-((5-isopropoxypyridin-2-yl)oxy)-2-methylpiperidin-1-yl)-1-methyl-2-oxo-1,2-dihydropyrido[3,2-d]pyrimidine-6-carbonitrile]
0.64 µM | CCO[C@H]1CN(c2cc(=O)n(C)c3ccc(C#N)nc23)CC[C@@H]1Oc1ccc(C(F)(F)F)cn1 (relative stereo) [Example 367, trans-8-(3-Ethoxy-4-((5-(trifluoromethyl)pyridin-2-yl)oxy)piperidin-1-yl)-5-methyl-6-oxo-5,6-dihydro-1,5-naphthyridine-2-carbonitrile]
0.38 µM | CC[C@@H]1CN(c2nc(=O)n(C)c3ccc(C#N)nc23)[C@H](C)C[C@H]1Oc1ccc(OC(C)C)cn1 [Example 303, 4-((2R,4R,5R)-5-ethyl-4-((5-isopropoxypyridin-2-yl)oxy)-2-methylpiperidin-1-yl)-1-methyl-2-oxo-1,2-dihydropyrido[3,2-d]pyrimidine-6-carbonitrile]
8.3 µM | CC[C@@H]1CN(c2nc(=O)n(C)c3ccc(Cl)nc23)[C@@H](C)C[C@H]1Oc1ccc(OC(C)C)cn1 [Example 300, 6-chloro-4-((2S,4R,5R)-5-ethyl-4-((5-isopropoxypyridin-2-yl)oxy)-2-methylpiperidin-1-yl)-1-methylpyrido[3,2-d]pyrimidin-2(1H)-one]
20 µM | CC1CN(c2c(C#N)c(=O)n(C)c3ccc(C#N)nc23)CCC1N(C)C(=O)c1ccc(C(F)(F)F)cc1 (single isomer, unassigned) [Example 292, N-(1-(3,6-dicyano-1-methyl-2-oxo-1,2-dihydro-1,5-naphthyridin-4-yl)-3-methylpiperidin-4-yl)-N-methyl-4-(trifluoromethyl)benzamide]

The next lines start with the molecule.

Compound | EC50
CC(C)Oc1ccc(OC2C[C@H](C)N(c3nc(=O)n(C)c4ccc(C#N)nc34)C[C@@H]2C)nc1 (mixture of isomers) [Example 243, (±)-Cis-(-4-((5-isopropoxypyridin-2-yl)oxy)-2,5-dimethylpiperidin-1-yl)-1-methyl-2-oxo-1,2-dihydropyrido[3,2-d]pyrimidine-6-carbonitrile] | 0.59 µM
CC[C@@H]1CN(c2cc(=O)n(C)c3ccc(C#N)nc23)[C@H](C)C[C@@H]1Oc1ccc(OC(C)C)cn1 [Example 298, 8-((2R,4S,5R)-5-ethyl-4-((5-isopropoxypyridin-2-yl)oxy)-2-methylpiperidin-1-yl)-5-methyl-6-oxo-5,6-dihydro-1,5-naphthyridine-2-carbonitrile] | 0.91 µM
CC[C@@H]1CN(c2cc(=O)n(C)c3ccc(C#N)nc23)[C@@H](C)C[C@@H]1Oc1ccc(OC(C)C)cn1 [Example 299, 8-((2S,4S,5R)-5-ethyl-4-((5-isopropoxypyridin-2-yl)oxy)-2-methylpiperidin-1-yl)-5-methyl-6-oxo-5,6-dihydro-1,5-naphthyridine-2-carbonitrile] | 0.78 µM

same assay, conditions: human whole blood pERK; read-out: DGK HWB

Compound | EC50
CCO[C@H]1CN(c2cc(=O)n(C)c3ccc(C#N)nc23)CC[C@@H]1Oc1nc2ccccc2s1 [Example 373] | 1.6 µM
CCO[C@H]1CN(c2cc(=O)n(C)c3ccc(C#N)nc23)CC[C@@H]1Oc1ccccc1C(F)(F)F [Example 345, 8-((3S,4S)-3-ethoxy-4-(2-(trifluoromethyl)phenoxy)piperidin-1-yl)-5-methyl-6-oxo-5,6-dihydro-1,5-naphthyridine-2-carbonitrile] | 0.82 µM
CCO[C@H]1CN(c2cc(=O)n(C)c3ccc(C#N)nc23)CC[C@H]1Oc1ccc(OC(C)C)cn1 (relative stereo) [Example 372, cis-8-(3-Ethoxy-4-((5-isopropoxypyridin-2-yl)oxy)piperidin-1-yl)-5-methyl-6-oxo-5,6-dihydro-1,5-naphthyridine-2-carbonitrile] | 18 µM
CCO[C@H]1CN(c2cc(=O)n(C)c3ccc(C#N)nc23)CC[C@@H]1Oc1cccc(C(F)(F)F)n1 (relative stereo) [Example 364, trans-8-(3-Ethoxy-4-((6-(trifluoromethyl)pyridin-2-yl)oxy)piperidin-1-yl)-5-methyl-6-oxo-5,6-dihydro-1,5-naphthyridine-2-carbonitrile] | 20 µM
CCO[C@H]1CN(c2cc(=O)n(C)c3ccc(C#N)nc23)CC[C@@H]1Oc1cccc(OC(F)(F)F)c1 [Example 352, 8-((3S,4S)-3-ethoxy-4-(3-(trifluoromethoxy)phenoxy)piperidin-1-yl)-5-methyl-6-oxo-5,6-dihydro-1,5-naphthyridine-2-carbonitrile] | 12 µM

same assay, conditions: human whole blood, CD8 positive population, anti-CD3 stimulation; top concentration 20 μM; read-out: DGK HWB (human whole blood pERK)

Compound | EC50
CCO[C@H]1CN(c2cc(=O)n(C)c3ccc(C#N)nc23)CC[C@@H]1Oc1ccc(OC(C)C)cn1 (relative stereo) [Example 397, trans-8-(4-((5-Isopropoxypyridin-2-yl)oxy)-3-ethoxypiperidin-1-yl)-5-methyl-6-oxo-5,6-dihydro-1,5-naphthyridine-2-carbonitrile] | 0.14 µM

same assay, conditions: read-out: DGK HWB; human whole blood pERK

EC50 | Compound
4.7 µM | C[C@@H]1CN(c2nc(=O)n(C)c3ccc(C#N)nc23)[C@H](C)CC1Oc1cccc(C(F)(F)F)c1 (stereo partly drawn) [Example 256, 4-((2R,5R)-2,5-dimethyl-4-(3-(trifluoromethyl)phenoxy)piperidin-1-yl)-1-methyl-2-oxo-1,2-dihydropyrido[3,2-d]pyrimidine-6-carbonitrile]
0.49 µM | CC(C)Oc1ccc(OC2C[C@@H](C)N(c3nc(=O)n(C)c4ccc(C#N)nc34)C[C@@H]2C)nc1 (stereo partly drawn) [Example 249, 4-((2R,5S)-4-((5-isopropoxypyridin-2-yl)oxy)-2,5-dimethylpiperidin-1-yl)-1-methyl-2-oxo-1,2-dihydropyrido[3,2-d]pyrimidine-6-carbonitrile]
20 µM | CCO[C@H]1CN(c2cc(=O)n(C)c3ccc(C#N)nc23)CC[C@@H]1Oc1ccnc(C(F)(F)F)c1 [Example 359, 8-((3S,4S)-3-ethoxy-4-((2-(trifluoromethyl)pyridin-4-yl)oxy)piperidin-1-yl)-5-methyl-6-oxo-5,6-dihydro-1,5-naphthyridine-2-carbonitrile]
0.74 µM | CC(C)Oc1ccc(OC2C[C@H](C)N(c3nc(=O)n(C)c4ccc(C#N)nc34)C[C@H]2C)nc1 (stereo partly drawn) [Example 247, 4-((2S,5R)-4-((5-isopropoxypyridin-2-yl)oxy)-2,5-dimethylpiperidin-1-yl)-1-methyl-2-oxo-1,2-dihydropyrido[3,2-d]pyrimidine-6-carbonitrile]
20 µM | CCO[C@H]1CN(c2cc(=O)n(C)c3ccc(C#N)nc23)CC[C@@H]1Oc1ccc(Cl)c(F)c1 [Example 357, 8-((3S,4S)-4-(4-chloro-3-fluorophenoxy)-3-ethoxypiperidin-1-yl)-5-methyl-6-oxo-5,6-dihydro-1,5-naphthyridine-2-carbonitrile]
